Assay results as given in patent publication US10610522B2, “Methods for retreating irritable bowel syndrome (IBS)” (Salix Pharmaceuticals, Inc., priority 2014, dated 2020).
Where two headings read alike, the source gives them in different places.

Tests used:
non-constipation IBS = experiment: Combined first and second studies (TARGET 1 and 2): pooled efficacy, sustained response and recurrence; type: in vivo, human; conditions: for Recurrence, Abdominal Pain & Stool Consistency: % of subjects / Recurrence, Abdominal Pain & Stool Consistency: number of subjects / Recurrence, Abdominal Pain: % of subjects / Recurrence, Abdominal Pain: number of subjects / Recurrence, Stool Consistency: % of subjects / Recurrence, Stool Consistency: number of subjects / No Recurrence, Abdominal Pain & Stool Consistency: % of subjects / No Recurrence, Abdominal Pain & Stool Consistency: number of subjects / No Recurrence, Abdominal Pain: % of subjects / No Recurrence, Abdominal Pain: number of subjects / No Recurrence, Stool Consistency: % of subjects / No Recurrence, Stool Consistency: number of subjects: N = 624; for Abdominal Pain or Stool Consistency, No Recurrence / Abdominal Pain or Stool Consistency, Recurrence: Rifaximin (N = 624), n (%)
Protocol: A measure of efficacy is based on subjects' answers to the Weekly Subject Global Assessment (SGA) questions over the study duration in relation to their IBS symptoms.
An evaluation of the enrolled subjects was carried out after the Primary Evaluation Period in the study described in Examples 5-7. […] Subjects with no recurrence are defined as having a stool consistency score of less than 4, abdominal pain reduced by at least 30 percent or both.

cytochrome P450 2D6 = cytochrome P450 2D6 (Homo sapiens, UniProt P10635); experiment: In vitro cytochrome P450 inhibition; type: biochemical; conditions: 2 to 200 ng/mL
[1] = Rifaximin systemic exposure/pharmacokinetics in healthy subjects, IBS subjects and liver impaired subjects; type: in vivo, human; conditions: for AUC / Cmax / half-life / Tmax / AUC(0-inf): human, plasma; for Tmax: read-out: Tmax, Median (range); for AUC(0-inf): po, single 550 mg oral dose, read-out: Mean AUC0-∞
Protocol: Subjects with non-c-IBS had mean AUCtau values following a single dose and multiple TID doses of 9.69 ng·h/mL and 16.0 ng·h/mL, respectively, reflecting an accumulation ratio (Rc; multiple-dose AUCtau/single-dose AUCtau) of […]. In subjects with liver impairment, systemic exposure is higher than that observed in healthy subjects or subjects with non-constipation irritable bowel syndrome, but low nonetheless.
Pharmacokinetic parameters were measured after a single dose and multiple doses (14 days).

Chain of cytochrome P450 2D6 (P10635 whole entry): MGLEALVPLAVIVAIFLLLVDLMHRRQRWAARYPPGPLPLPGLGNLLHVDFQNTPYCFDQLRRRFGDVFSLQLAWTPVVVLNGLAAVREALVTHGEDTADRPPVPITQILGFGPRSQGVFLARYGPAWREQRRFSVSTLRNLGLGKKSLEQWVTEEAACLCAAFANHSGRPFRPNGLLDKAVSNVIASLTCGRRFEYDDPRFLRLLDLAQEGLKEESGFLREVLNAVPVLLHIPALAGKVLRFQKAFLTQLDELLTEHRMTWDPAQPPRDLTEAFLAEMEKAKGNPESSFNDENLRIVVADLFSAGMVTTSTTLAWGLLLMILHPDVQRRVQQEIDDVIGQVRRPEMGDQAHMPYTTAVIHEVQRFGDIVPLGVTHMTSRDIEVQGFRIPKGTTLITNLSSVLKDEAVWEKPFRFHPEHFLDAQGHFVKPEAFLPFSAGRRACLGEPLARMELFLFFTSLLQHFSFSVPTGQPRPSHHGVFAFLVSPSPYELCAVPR

CO[C@H]1/C=C/O[C@@]2(C)Oc3c(C)c(O)c4c(O)c(c5c(nc6cc(C)ccn65)c4c3C2=O)NC(=O)/C(C)=C\C=C\[C@H](C)[C@H](O)[C@@H](C)[C@@H](O)[C@@H](C)[C@H](OC(C)=O)[C@@H]1C [Rifaximin, (2S,16Z,18E,20S,21S,22R,23R,24R,25S,26S,27S,28E)-5,6,21,23,25 Pentahydroxy-27-methoxy-2,4,11,16,20,22,24,26-octamethyl-2,7-(epoxypentadeca-(1,11,13)trienimino) benzofuro (4,5-e) pyrido(1,2-a) benzimidazole-1,15(2H)-dione,25-acetate]
Recurrence, Abdominal Pain & Stool Consistency: % of subjects (non-constipation IBS; Rolling 4 Weeks: 7-10 Weeks): 1.8% | Recurrence, Abdominal Pain & Stool Consistency: number of subjects (non-constipation IBS; Rolling 4 Weeks: 7-10 Weeks): 11 | Recurrence, Abdominal Pain: % of subjects (non-constipation IBS; Rolling 4 Weeks: 7-10 Weeks): 2.4% | Recurrence, Abdominal Pain: number of subjects (non-constipation IBS; Rolling 4 Weeks: 7-10 Weeks): 15 | Recurrence, Stool Consistency: % of subjects (non-constipation IBS; Rolling 4 Weeks: 7-10 Weeks): 1.4% | Recurrence, Stool Consistency: number of subjects (non-constipation IBS; Rolling 4 Weeks: 7-10 Weeks): 9 | No Recurrence, Abdominal Pain & Stool Consistency: % of subjects (non-constipation IBS; Rolling 4 Weeks: 8-11 Weeks): (37.3%) | No Recurrence, Abdominal Pain & Stool Consistency: number of subjects (non-constipation IBS; Rolling 4 Weeks: 8-11 Weeks): 233 | No Recurrence, Abdominal Pain: % of subjects (non-constipation IBS; Rolling 4 Weeks: 8-11 Weeks): (40.2%) | No Recurrence, Abdominal Pain: number of subjects (non-constipation IBS; Rolling 4 Weeks: 8-11 Weeks): 251 | No Recurrence, Stool Consistency: % of subjects (non-constipation IBS; Rolling 4 Weeks: 8-11 Weeks): (71.5%) | No Recurrence, Stool Consistency: number of subjects (non-constipation IBS; Rolling 4 Weeks: 8-11 Weeks): 446 | Recurrence, Abdominal Pain & Stool Consistency: % of subjects (non-constipation IBS; Rolling 4 Weeks: 8-11 Weeks): 2.2% | Recurrence, Abdominal Pain & Stool Consistency: number of subjects (non-constipation IBS; Rolling 4 Weeks: 8-11 Weeks): 14 | Recurrence, Abdominal Pain: % of subjects (non-constipation IBS; Rolling 4 Weeks: 8-11 Weeks): 2.2% | Recurrence, Abdominal Pain: number of subjects (non-constipation IBS; Rolling 4 Weeks: 8-11 Weeks): 14 | Recurrence, Stool Consistency: % of subjects (non-constipation IBS; Rolling 4 Weeks: 8-11 Weeks): 0.5% | Recurrence, Stool Consistency: number of subjects (non-constipation IBS; Rolling 4 Weeks: 8-11 Weeks): 3 | No Recurrence, Abdominal Pain & Stool Consistency: % of subjects (non-constipation IBS; Rolling 4 Weeks: 9-12 Weeks): (35.1%) | No Recurrence, Abdominal Pain & Stool Consistency: number of subjects (non-constipation IBS; Rolling 4 Weeks: 9-12 Weeks): 219 | No Recurrence, Abdominal Pain: % of subjects (non-constipation IBS; Rolling 4 Weeks: 9-12 Weeks): (38.0%) | No Recurrence, Abdominal Pain: number of subjects (non-constipation IBS; Rolling 4 Weeks: 9-12 Weeks): 237 | No Recurrence, Stool Consistency: % of subjects (non-constipation IBS; Rolling 4 Weeks: 9-12 Weeks): (71.0%) | No Recurrence, Stool Consistency: number of subjects (non-constipation IBS; Rolling 4 Weeks: 9-12 Weeks): 443 | Recurrence, Abdominal Pain & Stool Consistency: % of subjects (non-constipation IBS; Rolling 4 Weeks: 9-12 Weeks): 1.9% | Recurrence, Abdominal Pain & Stool Consistency: number of subjects (non-constipation IBS; Rolling 4 Weeks: 9-12 Weeks): 12 | Recurrence, Abdominal Pain: % of subjects (non-constipation IBS; Rolling 4 Weeks: 9-12 Weeks): 2.2% | Recurrence, Abdominal Pain: number of subjects (non-constipation IBS; Rolling 4 Weeks: 9-12 Weeks): 14 | Recurrence, Stool Consistency: % of subjects (non-constipation IBS; Rolling 4 Weeks: 9-12 Weeks): 2.1% | Recurrence, Stool Consistency: number of subjects (non-constipation IBS; Rolling 4 Weeks: 9-12 Weeks): 13 | Abdominal Pain or Stool Consistency, No Recurrence (non-constipation IBS; Rolling 5-8 Weeks): 234 (37.5%) | Abdominal Pain or Stool Consistency, Recurrence (non-constipation IBS; Rolling 5-8 Weeks): 16 (2.6%) | Abdominal Pain or Stool Consistency, No Recurrence (non-constipation IBS; Rolling 6-9 Weeks): 218 (34.9%) | Abdominal Pain or Stool Consistency, Recurrence (non-constipation IBS; Rolling 6-9 Weeks): 10 (1.6%) | Abdominal Pain or Stool Consistency, No Recurrence (non-constipation IBS; Rolling 7-10 Weeks): 208 (33.3%) | Abdominal Pain or Stool Consistency, Recurrence (non-constipation IBS; Rolling 7-10 Weeks): 10 (1.6%) | Abdominal Pain or Stool Consistency, No Recurrence (non-constipation IBS; Rolling 8-11 Weeks): 198 (31.7%) | Abdominal Pain or Stool Consistency, Recurrence (non-constipation IBS; Rolling 8-11 Weeks): 8 (1.3%) | Abdominal Pain or Stool Consistency, No Recurrence (non-constipation IBS; Rolling 9-12 Weeks): 190 (30.4%) | Abdominal Pain or Stool Consistency, Recurrence (non-constipation IBS; Rolling 9-12 Weeks): 10 (1.6%) | Inhibition of cytochrome P450 2D6 (cytochrome P450 2D6): does not inhibit | AUC ([1]; 550 mg, 550 mg BID repeat dosing, Child Pugh B, read-out: Mean steady-state AUCtau): 161 ng·h/mL | AUC ([1]; 550 mg, 550 mg BID repeat dosing, Child-Pugh A, read-out: Mean steady-state AUCtau): 118 ng·h/mL | AUC ([1]; 550 mg, 550 mg BID repeat dosing, Child-Pugh C, read-out: Mean steady-state AUCtau): 246 ng·h/mL | AUC ([1]; 550 mg, multiple-dose TID, healthy subjects, read-out: Mean AUCtau, steady-state): 9.3 ng·h/mL | AUC ([1]; 550 mg, subjects with non-c-IBS, multiple TID doses, read-out: Mean AUCtau): 16 ng·h/mL | AUC ([1]; 550 mg, subjects with non-c-IBS, single dose, read-out: Mean AUCtau): 9.69 ng·h/mL | AUC ([1]; multiple-dose BID, healthy subjects, read-out: Mean AUCtau, steady-state): 12.3 ng·h/mL | AUC ([1]; oral, 550 mg, 550 mg BID, Child-Pugh C, read-out: Mean steady-state AUCtau): 257 ng·h/mL | Cmax ([1]; oral, 550 mg, 550 mg BID, Child-Pugh C, read-out: Mean steady-state Cmax): 39.7 ng/mL | half-life ([1]; oral, 550 mg, Child-Pugh C subjects, read-out: Mean half-life (converted)): 6.35 h | AUC ([1]; oral, 550 mg, Healthy Subjects, 550 mg Multiple-Dose TID (Day 14), N = 14, read-out: AUCtau, mean (SD)): 9.3 ng·h/mL | Cmax ([1]; oral, 550 mg, Healthy Subjects, 550 mg Multiple-Dose TID (Day 14), N = 14, read-out: Cmax, mean (SD)): 2.39 ng/mL | half-life ([1]; oral, 550 mg, Healthy Subjects, 550 mg Multiple-Dose TID (Day 14), N = 14, read-out: Half-life, harmonic mean (pseudo SD) (converted)): 5.63 h | Tmax ([1]; oral, 550 mg, Healthy Subjects, 550 mg Multiple-Dose TID (Day 14), N = 14): 1 h | AUC ([1]; oral, 550 mg, Healthy Subjects, 550 mg Single-Dose (Day 1), N = 12, read-out: AUCtau, mean (SD)): 10.4 ng·h/mL | Cmax ([1]; oral, 550 mg, Healthy Subjects, 550 mg Single-Dose (Day 1), N = 12, read-out: Cmax, mean (SD)): 4.04 ng/mL | half-life ([1]; oral, 550 mg, Healthy Subjects, 550 mg Single-Dose (Day 1), N = 12, read-out: Half-life, harmonic mean (pseudo SD) (converted)): 1.83 h | Tmax ([1]; oral, 550 mg, Healthy Subjects, 550 mg Single-Dose (Day 1), N = 12): 0.75 h | AUC ([1]; oral, 550 mg, IBS-D Patients, 550 mg Multiple-Dose TID (Day 14), N = 24, read-out: AUCtau, mean (SD)): 16 ng·h/mL | Cmax ([1]; oral, 550 mg, IBS-D Patients, 550 mg Multiple-Dose TID (Day 14), N = 24, read-out: Cmax, mean (SD)): 4.22 ng/mL | half-life ([1]; oral, 550 mg, IBS-D Patients, 550 mg Multiple-Dose TID (Day 14), N = 24, read-out: Half-life, harmonic mean (pseudo SD) (converted)): 6.08 h | Tmax ([1]; oral, 550 mg, IBS-D Patients, 550 mg Multiple-Dose TID (Day 14), N = 24): 1 h | AUC ([1]; oral, 550 mg, IBS-D Patients, 550 mg Single-Dose (Day 1), N = 24, read-out: AUCtau, mean (SD)): 9.69 ng·h/mL | Cmax ([1]; oral, 550 mg, IBS-D Patients, 550 mg Single-Dose (Day 1), N = 24, read-out: Cmax, mean (SD)): 3.49 ng/mL | half-life ([1]; oral, 550 mg, IBS-D Patients, 550 mg Single-Dose (Day 1), N = 24, read-out: Half-life, harmonic mean (pseudo SD) (converted)): 3.14 h | Tmax ([1]; oral, 550 mg, IBS-D Patients, 550 mg Single-Dose (Day 1), N = 24): 0.775 h | Cmax ([1]; oral, 550 mg, single 550-mg dose, fasted healthy subjects, read-out: Cmax): 4.1 ng/mL | AUC(0-inf) ([1]; 550 mg, fasted healthy subjects): 11.1 ng·h/mL | AUC(0-inf) ([1]; 550 mg, fed healthy subjects): 22.5 ng·h/mL | Systemic absorption ([1]; regardless of food intake or presence of GI disease): < 0.4%
